We go through two molecules from patent US7544204B2, “Control of halitosis-generating and other microorganisms in the non-dental upper respiratory tract” (Valam Corporation, priority 2003, dated 2009).

One assay relates to Staphylococcus Aureus. The note with it: micromolar concentrations; gram positive (Staph aureus); illuminated in light box; cited from earlier work.
In the next assay the test system is Escherichia Coli. The note with it: micromolar concentrations; gram negative (E. Coli); illuminated in light box; cited from earlier work.
For the next assay, the system named is P. gingivalis ATCC 33277. The assay is described as follows: Lethal photosensitization of P. Gingivalis, colony count. Type of assay: cell-based, Porphyromonas Gingivalis. As for the experimental part:
• Suitable stain dosages for providing lethal sensitization of oral pathogens are determined in vitro by the following procedure. An objective is to determine the minimum duration of light exposure and minimum agent dilution required to achieve at least a 50% reduction in bacteria counts. Experimental tests are performed on two common pathogens using a continuously working, high intensity, red filtered halogen lamp. Red light from the filtered halogen lamp is transmitted through a flexible light guide to radiate downwardly onto petri dishes containing samples of live bacteria of species Porphyromonas Gingivalis and Prevotella Intermedia using the protocols described below. • Bacteria. Prevoltella Intermedia is isolated from patient sample material, identified in the laboratory using standard diagnostic test systems (Remel Inc., Lenexa, Kans., USA) and is maintained by twice-weekly subculture in thioglycollate medium (Becton Dickinson and Co, Sparks, Md., USA). P. gingivalis ATCC 33277 obtained from Remel Inc., is maintained by a twice-weekly subculture on CDC anaerobe blood agar (Becton Dickinson and Co, USA) and in thioglycollate medium (Becton Dickinson and Co, USA). • Light Source. […] The light output power density measured at 3 cm distance from the end of the light guide with filter is about 50 milliwatts/cm2. • Photosensitizer. […]

Assay [1] has as its system Porphyromonas Gingivalis and Prevotella Intermedia. The note with it: for bactericidal effect without light exposure: methylene blue 0.075% and 0.1%, no red halogen light.
Another assay concerns Candida albicans. The conditions noted are these: methylene blue 450 and 500 microgram/mL; diode laser 664 nm, 275 J/cm fiber length, 400 mW, 687.5 seconds; immunosuppressed murine model; cited from earlier work.

Molecules are shown by their SMILES. Like-named read-outs stand apart in the source and are kept apart here. Where only a bound is given, the exact number is not on record here.

In the case of `Cc1cc2nc3ccc(N(C)C)cc3[s+]c2cc1N.[Cl-]` [toluidine blue O], the “bacterial cell death by phototoxicity” value with Staphylococcus Aureus and in the assay on Escherichia Coli was “bacterial cell death” throughout.

Regarding `CN(C)c1ccc2nc3ccc(=[N+](C)C)cc-3sc2c1` [methylene blue], in the assay with P. gingivalis ATCC 33277 (methylene blue 0.01%, without light exposure, P.gingivalis culture), the “bacterial killing without light exposure” value is “statistically significant bacterial killing”. The “bactericidal effect on P.gingivalis” value in the assay on P. gingivalis ATCC 33277 (methylene blue 0.1%) was “bactericidal effect”. Moreover, the “bacterial cell death by phototoxicity” value in the assay on Staphylococcus Aureus and in the assay on Escherichia Coli was “bacterial cell death” each time. The “killing with duration of red-filtered light exposure” value in assay [1] (1, 5 and 10 min with methylene blue 0.05%, 5 and 10 min with methylene blue 0.025%) was “statistically significant increased killing with duration”. The “reduction in bacteria counts” value in assay [1] (light 5 min with methylene blue 0.025%, light 1 min with methylene blue 0.05% and higher) is on record as “Significant reduction in bacteria counts”. Moreover, the “killing of bacteria without halogen light” value in assay [1] (methylene blue 0.001% or 0.025%, without halogen light) was “nor concentrations of methylene blue of 0.001% or 0.025%, without halogen light, appeared to be effective in killing bacteria”. In assay [1] (methylene blue 0.01% or higher, exposure less than 10 minutes, accumulated energy 30 J/cm^2, both species), the “bactericidal effect in combination with red-filtered high-intensity light” value is “bactericidal effect”. Besides, the “survival rate (bacterial colony count)” value in assay [1] (methylene blue 0.05% and higher, red light exposure 10 or 20 minutes) is reported as not above 50%. Also, in assay [1] (methylene blue 0.05%, without exposure to light), the “reduction of bacteria, methylene blue alone” value is on record as “insignificant”. Further, the entries for the “bactericidal effect without light exposure” value in assay [1] and in assay [1] (listed as Methylene blue) were “significantly bactericidal” and “significant bactericidal effect”, respectively. Moreover, in the assay on Candida albicans, the “eradication of Candida albicans” value is listed as “totally eradicate”.
